Assay results reported in patent US20220105113A1, “CYLODIMER OF DEHYDROSALICORTIN AND DERIVATIVES THEREOF ISOLATED FROM PLANT OF THE GENUS SALIX FOR USE IN CANCER THERAPY” (ROTHAMSTED RESEARCH LTD, priority 2019, published 2022).
≈ marks a conversion by molar mass, not a printed value. Read-outs that look alike come from different tables or passages of the source.

Columns and labels:
Type in all cases: cell-based
MCF-7 = assay: MTT dye reduction cell viability assay, MCF-7 breast cancer cell line; conditions: Homo sapiens, MCF7, MCF-7, MTT 120 h, read-out: Miyabeacin IC50
Protocol: (§1) The activity of miyabeacin was tested against a range of cancer cell lines including those in neuroblastoma and breast, oesophageal and ovarian cancers (Table 10).
(§2) The MYCN-amplified neuroblastoma cell line UKF-NB-3 was established from a stage 4 neuroblastoma patient (Kotchetkov et al., 2005). Also tested was the vincristine-resistant UKF-NB-3 sub-line UKF-NB-3^rVCR (Rothwell et al., 2010) (adapted to grow in the presence of vincristine 10 ng/mL). At a concentration of 20 μg/mL of miyabeacin, the cell viability, relative to non-treated cells, after 120 hours was 0% for UKF-NB-3 and 4.22±2.89% for the vincristine resistant UKF-NB-3^rVCR line. The oesophageal cancer cell line COLO-680N was obtained from ATCC (Manassas, Va., USA) and the ovarian cancer cell line COLO-704 from DSMZ (Braunschweig, Germany). All cell lines were propagated in Iscove's modified Dulbecco's medium (IMDM) supplemented with 10% FCS, 100 IU/ml penicillin and […] streptomycin at 37° C. […] Cell viability was determined by the 3-(4,5-dimethylthiazol-2-yl)-2,5-diphenyltetrazolium bromide (MTT) dye reduction assay after 120 h incubation as described previously (Michaelis et al., 2015). […] Plates were then read at 600 nm. The relative viability was determined as the relative reduction of the optical density relative to an untreated cell control (=100%).

COLO-704 = assay: MTT dye reduction cell viability assay, COLO-704 ovarian cancer cell line
Protocol: as §1
(§3) The MYCN-amplified neuroblastoma cell line UKF-NB-3 was established from a stage 4 neuroblastoma patient (Kotchetkov et al., 2005). Also tested was the vincristine-resistant UKF-NB-3 sub-line UKF-NB-3^rVCR (Rothwell et al., 2010) (adapted to grow in the presence of vincristine 10 ng/mL). At a concentration of 20 μg/mL of miyabeacin, the cell viability, relative to non-treated cells, after 120 hours was 0% for UKF-NB-3 and 4.22±2.89% for the vincristine resistant UKF-NB-3^rVCR line. The oesophageal cancer cell line COLO-680N was obtained from ATCC (Manassas, Va., USA) and the ovarian cancer cell line COLO-704 from DSMZ (Braunschweig, Germany). All cell lines were propagated in Iscove's modified Dulbecco's medium (IMDM) supplemented with 10% FCS, 100 IU/ml penicillin and […] streptomycin at 37° C. Cells were routinely tested for mycoplasma contamination and authenticated by short tandem repeat profiling. Cell viability was determined by the 3-(4,5-dimethylthiazol-2-yl)-2,5-diphenyltetrazolium bromide (MTT) dye reduction assay after 120 h incubation as described previously (Michaelis et al., 2015). Briefly, 5000 cells (suspended in 100 μL IMDM supplemented with 10% FCS, 100 IU/ml penicillin and […] streptomycin) were incubated in 96-well plates at 37° C. and 5% CO2 in the absence or presence of varying compound concentrations for 120 h. Then, 25 μL of MTT solution ([…] dissolved in PBS) were added for 4 h. This was followed by the addition of […] of 20% sodium dodecyl sulphate (50:50 purified water/DMF) solution adjusted to pH 4.7 for an additional 4 h in order to lyse cells and dissolve formazan precipitates. Plates were then read at 600 nm. The relative viability was determined as the relative reduction of the optical density relative to an untreated cell control (=100%).

BT-474 = assay: MTT dye reduction cell viability assay, BT-474 breast cancer cell line; conditions: Homo sapiens, BT-474, MTT 120 h, read-out: Miyabeacin IC50
Protocol: as §1, §2

[1] = tested on: UKF-NB-3, COLO-680N and COLO-704; assay: Replicated IC50 determination (MTT) on three selected lines; conditions: range of means over UKF-NB-3, COLO-680N and COLO-704
Protocol: (§4) The MYCN-amplified neuroblastoma cell line UKF-NB-3 was established from a stage 4 neuroblastoma patient (Kotchetkov et al., 2005). Also tested was the vincristine-resistant UKF-NB-3 sub-line UKF-NB-3^rVCR (Rothwell et al., 2010) (adapted to grow in the presence of vincristine 10 ng/mL). At a concentration of 20 μg/mL of miyabeacin, the cell viability, relative to non-treated cells, after 120 hours was 0% for UKF-NB-3 and 4.22±2.89% for the vincristine resistant UKF-NB-3^rVCR line. The oesophageal cancer cell line COLO-680N was obtained from ATCC (Manassas, Va., USA) and the ovarian cancer cell line COLO-704 from DSMZ (Braunschweig, Germany). All cell lines were propagated in Iscove's modified Dulbecco's medium (IMDM) supplemented with 10% FCS, 100 IU/ml penicillin and […] streptomycin at 37° C. Cells were routinely tested for mycoplasma contamination and authenticated by short tandem repeat profiling. Cell viability was determined by the 3-(4,5-dimethylthiazol-2-yl)-2,5-diphenyltetrazolium bromide (MTT) dye reduction assay after 120 h incubation as described previously (Michaelis et al., 2015). […] Plates were then read at 600 nm. The relative viability was determined as the relative reduction of the optical density relative to an untreated cell control (=100%).

COLO-680N = assay: MTT dye reduction cell viability assay, COLO-680N oesophageal cancer cell line; conditions: Homo sapiens
Protocol: as §1, §3

UKF-NB-3 = assay: MTT dye reduction cell viability assay, UKF-NB-3 neuroblastoma cell line
Protocol: as §1, §3

EFO-21 = assay: MTT dye reduction cell viability assay, EFO-21 ovarian cancer cell line; conditions: Homo sapiens, EFO-21, MTT 120 h, read-out: Miyabeacin IC50
Protocol: as §1, §2

UKF-NB-3^rVCR = assay: MTT dye reduction cell viability assay, vincristine-resistant UKF-NB-3 sub-line; conditions: 20 μg/mL, after 120 hours, vincristine resistant UKF-NB-3^rVCR; read-out: cell viability, relative to non-treated cells
Protocol: as §4

- IC50 (MCF-7): 2.19 µg/mL (≈ 2.59 µM)
- IC50 (COLO-704; COLO-704, expt 1, read-out: miyabeacin IC50 concentration expt 1): 20.2 µg/mL
- IC50 (COLO-704; COLO-704, expt 2, read-out: miyabeacin IC50 concentration expt 2): 32.4 µg/mL
- IC50 (COLO-704; COLO-704, expt 3, read-out: miyabeacin IC50 concentration expt 3): 50.8 µg/mL
- IC50 (COLO-704; COLO-704, mean of 3 expts, read-out: IC50 mean): 40.2 µM
- IC50 (COLO-704; COLO-704, mean of 3 expts, read-out: miyabeacin IC50 concentration mean): 34.5 µg/mL
- IC50 (COLO-704; ovarian, COLO-704, MTT 120 h, read-out: Miyabeacin IC50): 20.2 µg/mL
- IC50 (BT-474): 27 µg/mL (≈ 32 µM)
- IC50 [1]: 17.2 to 40.2 µM
- IC50 (COLO-680N; expt 1, read-out: miyabeacin IC50 concentration expt 1): 5.08 µg/mL
- IC50 (COLO-680N; expt 2, read-out: miyabeacin IC50 concentration expt 2): 15.1 µg/mL
- IC50 (COLO-680N; expt 3, read-out: miyabeacin IC50 concentration expt 3): 51.5 µg/mL
- IC50 (COLO-680N; mean of 3 expts, read-out: IC50 mean): 28.3 µM
- IC50 (COLO-680N; mean of 3 expts, read-out: miyabeacin IC50 concentration mean): 23.9 µg/mL
- IC50 (COLO-680N; oesophageal, MTT 120 h, read-out: Miyabeacin IC50): 5.08 µg/mL
- IC50 (UKF-NB-3; UKF-NB-3, expt 1, read-out: miyabeacin IC50 concentration expt 1): 7.12 µg/mL
- IC50 (UKF-NB-3; UKF-NB-3, expt 2, read-out: miyabeacin IC50 concentration expt 2): 21 µg/mL
- IC50 (UKF-NB-3; UKF-NB-3, expt 3, read-out: miyabeacin IC50 concentration expt 3): 15.3 µg/mL
- IC50 (UKF-NB-3; UKF-NB-3, mean of 3 expts, read-out: IC50 mean): 17.2 µM
- IC50 (UKF-NB-3; UKF-NB-3, mean of 3 expts, read-out: miyabeacin IC50 concentration mean): 14.5 µg/mL
- IC50 (UKF-NB-3; neuroblastoma, UKF-NB-3, MTT 120 h, read-out: Miyabeacin IC50): 7.12 µg/mL
- IC50 (EFO-21): 12.7 µg/mL (≈ 15 µM)
Structure (SMILES): O=C(OCc1ccccc1O[C@H]1OC(CO)[C@H](O)C(O)C1O)[C@@]1(O)C(=O)C2C=CC1C1C2C=CC(=O)[C@]1(O)C(=O)OCc1ccccc1O[C@H]1OC(CO)[C@H](O)C(O)C1O (stereo partly drawn) [miyabeacin]
- viability at 20 µg/mL (UKF-NB-3; 20 μg/mL, after 120 hours, UKF-NB-3, read-out: cell viability, relative to non-treated cells): 0%
- viability at 20 µg/mL (UKF-NB-3^rVCR): 4.22 ± 2.89%
